Test results as given in ChEMBL document CHEMBL1157520, “Abietane diterpenoids from the bark of Cryptomeria fortunei” (2008).

Columns and labels:
Assay type in all cases: functional
[1] = test system: A549; test: Antitumor activity against human A549 cells at 10^-4 mol/l by SRB assay
[2] = test system: A549; test: Antitumor activity against human A549 cells at 10^-5 mol/l by SRB assay
[3] = test system: A549; test: Antitumor activity against human A549 cells at 10^-6 mol/l by SRB assay
[4] = test system: HL-60; test: Antitumor activity against human HL60 cells at 10^-6 mol/l by MTT assay
[5] = test system: HL-60; test: Antitumor activity against human HL60 cells at 10^-7 mol/l by MTT assay
[6] = test system: A549; test: Antitumor activity against human A549 cells at 10^-7 mol/l by SRB assay
[7] = test system: A549; test: Antitumor activity against human A549 cells at 10^-8 mol/l by SRB assay
[8] = test system: HL-60; test: Antitumor activity against human HL60 cells at 10^-4 mol/l by MTT assay
[9] = test system: HL-60; test: Antitumor activity against human HL60 cells at 10^-5 mol/l by MTT assay
[10] = test system: HL-60; test: Antitumor activity against human HL60 cells at 10^-8 mol/l by MTT assay

SMILES | Activity [1] [%] | Activity [2] [%] | Activity [3] [%] | Activity [4] [%] | Activity [5] [%] | Activity [6] [%] | Activity [7] [%] | Activity [8] [%] | Activity [9] [%] | Activity [10] [%]
CC(C)c1cc2c(c(O)c1O)[C@@]1(C)CCCC(C)(C)C1=C(O)C2=O [14-DEOXYCOLEON U] | 50.6 | 53.6 | 11.5 | 11.5 | 13.9 | 13.9 | 8.4 | 50.6 | 53.6 | 8.4
COc1c(C(C)C)cc2c(c1O)[C@@]1(C)CCCC(C)(C)[C@@H]1[C@@H](O)[C@@H]2OC [FORTUNIN C] | – | – | – | 14.4 | 10.8 | – | – | 58.5 | 56.2 | 9.3
CC(C)c1cc2c(cc1O)[C@@]1(C)CCCC(C)(C)C1=C(O)C2=O | – | – | – | 11.9 | 11.9 | – | – | 55.4 | 54.4 | 8.3
